Data published in PubChem BioAssay AID328 (DTP/NCI, 2004).
Several values for one entry are separate records, joined by “and”; a condition that tells them apart may be missing. Identical values can stand only once. Toxic doses and inconclusive results are not listed. How the source made its calls: active means survival T/C of 150% or more; inactive means T/C below 125% in these data.

Test system: BDF1 mice, P388 leukemia ip, median survival T/C
Experiment: NCI In Vivo Anticancer Drug Screen. Data for tumor model P388 Leukemia (intraperitoneal) in B6D2F1 (BDF1) mice
Settings: endpoint: median survival time, higher = longer survival
Outline: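 T/C = treated-group survival ÷ vehicle-control survival; tumour transplanted into mice before dosing.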

Measured: T/C

CCc1nc(N)nc(N)c1-c1ccc(Cl)c(Cl)c1
active: dose: 32.0 mg/kg/injection, schedule: Q04DX003 (ip), vehicle: Klucel (hydroxypropylcellulose) (HPC) 163 % of control
inactive: dose: 6.25 mg/kg/injection, schedule: Q01DX010 (ip), vehicle: carboxymethylcellulose (CMC) 110 % of control | dose: 8.0 mg/kg/injection, schedule: Q01DX009 (sc), vehicle: Klucel (hydroxypropylcellulose) (HPC) 90 % of control | dose: 8.0 mg/kg/injection, schedule: Q03HX024 (ip), vehicle: Klucel (hydroxypropylcellulose) (HPC) 90 % of control | dose: 12.5 mg/kg/injection, schedule: Q01DX010 (ip), vehicle: carboxymethylcellulose (CMC) 100 % of control | dose: 25.0 mg/kg/injection, schedule: Q01DX010 (ip), vehicle: carboxymethylcellulose (CMC) 90 % of control | dose: 64.0 mg/kg/injection, schedule: Q08DX002 (ip), vehicle: Klucel (hydroxypropylcellulose) (HPC) 86 % of control | dose: 128.0 mg/kg/injection, schedule: Q01DX001 (sc), vehicle: Klucel (hydroxypropylcellulose) (HPC) 100 % of control | dose: 128.0 mg/kg/injection, schedule: Q08DX002 (ip), vehicle: Klucel (hydroxypropylcellulose) (HPC) 86 % of control

NN(C(=O)c1ccccc1)C1CCCCC1
inactive: dose: 25.0 mg/kg/injection, schedule: Q01DX009 (ip), vehicle: alcohol 91 % of control | dose: 50.0 mg/kg/injection, schedule: Q01DX009 (ip), vehicle: alcohol 100 % of control | dose: 75.0 mg/kg/injection, schedule: Q04DX003 (ip), vehicle: Klucel (hydroxypropylcellulose) (HPC) 110 % of control | dose: 115.0 mg/kg/injection, schedule: Q04DX003 (ip), vehicle: Klucel (hydroxypropylcellulose) (HPC) 120 % of control | dose: 170.0 mg/kg/injection, schedule: Q04DX003 (ip), vehicle: Klucel (hydroxypropylcellulose) (HPC) 100 % of control | dose: 255.0 mg/kg/injection, schedule: Q04DX003 (ip), vehicle: Klucel (hydroxypropylcellulose) (HPC) 110 % of control | dose: 385.0 mg/kg/injection, schedule: Q04DX003 (ip), vehicle: Klucel (hydroxypropylcellulose) (HPC) 100 % of control

O=c1[nH]c2ccccc2nc1CBr
inactive: dose: 6.25 mg/kg/injection, schedule: Q01DX009 (ip), vehicle: saline with Tween-80 118 % of control and 122 % of control | dose: 7.5 mg/kg/injection, schedule: Q04DX003 (ip), vehicle: saline with Tween-80 118 % of control | dose: 12.5 mg/kg/injection, schedule: Q01DX009 (ip), vehicle: saline with Tween-80 118 % of control | dose: 12.5 mg/kg/injection, schedule: Q04DX003 (ip), vehicle: saline with Tween-80 109 % of control | dose: 15.0 mg/kg/injection, schedule: Q04DX003 (ip), vehicle: saline with Tween-80 104 % of control | dose: 25.0 mg/kg/injection, schedule: Q04DX003 (ip), vehicle: saline with Tween-80 113 % of control | dose: 30.0 mg/kg/injection, schedule: Q04DX003 (ip), vehicle: saline with Tween-80 118 % of control | dose: 60.0 mg/kg/injection, schedule: Q04DX003 (ip), vehicle: saline with Tween-80 100 % of control

O=C(O)C(O)C(O)C(O)C(O)CO.[Mn] (configuration not stated)
inactive: dose: 66.0 mg/kg/injection, schedule: Q01DX009 (ip), vehicle: saline 116 % of control | dose: 100.0 mg/kg/injection, schedule: Q01DX009 (ip), vehicle: saline 116 % of control

O=c1cc(-c2ccc(OCc3ccccc3)c(-c3c(OCc4ccccc4)cc(OCc4ccccc4)c4c(=O)cc(-c5ccc(OCc6ccccc6)cc5)oc34)c2)oc2cc(OCc3ccccc3)cc(OCc3ccccc3)c12
inactive: dose: 100.0 mg/kg/injection, schedule: Q01DX001 (ip), vehicle: saline with Tween-80 88 % of control

CCC1(O)CC2CN(CCc3c([nH]c4ccccc34)C(C(=O)OC)(c3cc4c(cc3OC)N(C)C3C(O)(C(=O)NCCSSCCNC(=O)C5(O)C(O)C6(CC)C=CCN7CCC8(c9cc(C%10(C(=O)OC)CC%11CN(CCc%12c%10[nH]c%10ccccc%12%10)CC(O)(CC)C%11)c(OC)cc9N(C)C58)C76)C(O)C5(CC)C=CCN6CCC43C65)C2)C1 (configuration not stated)
active: dose: 250.0 micrograms/kg/injection, schedule: Q04DX003 (ip), vehicle: saline 179 % of control | dose: 432.0 micrograms/kg/injection, schedule: Q04DX003 (ip), vehicle: saline 162 % of control | dose: 500.0 micrograms/kg/injection, schedule: Q04DX003 (ip), vehicle: saline 185 % of control | dose: 648.0 micrograms/kg/injection, schedule: Q04DX003 (ip), vehicle: saline 268 % of control | dose: 720.0 micrograms/kg/injection, schedule: Q04DX003 (ip), vehicle: saline 164 % of control | dose: 1000.0 micrograms/kg/injection, schedule: Q04DX003 (ip), vehicle: saline 224 % of control | dose: 1080.0 micrograms/kg/injection, schedule: Q04DX003 (ip), vehicle: saline 244 % of control | dose: 1200.0 micrograms/kg/injection, schedule: Q04DX003 (ip), vehicle: saline 171 % of control | dose: 1800.0 micrograms/kg/injection, schedule: Q04DX003 (ip), vehicle: saline 155 % of control | dose: 2000.0 micrograms/kg/injection, schedule: Q04DX003 (ip), vehicle: saline 221 % of control
